{"source": "patent US12145959B2", "about": "“Bile acid recycling inhibitors for treatment of hypercholemia and cholestatic liver disease” (SHIRE HUMAN GENETIC THERAPIES, INC., priority 2011, dated 2024)", "key": {"Male ZDF rats": {"test_system": "Male ZDF rats", "test": "Plasma bile acid levels of ZDF rats after ascending doses of SC-435 and LUM002", "format": "in vivo, rat", "settings": "ZDF rats n=4; oral gavage twice a day 2 weeks; all doses (SC-435 1, 10, 30 mg/kg; LUM002 0.3, 1, 3, 10, 30 mg/kg); end of second week", "experimental": "FIG. 2. Plasma bile acid levels of ZDF rats after administration of ascending doses of SC-435 and LUM002. Male ZDF rats (n=4) were administered vehicle, SC-435 (1, 10 or 30 mg/kg) or LUM002 (0.3, 1, 3, 10 or 30 mg/kg) by oral gavage twice a day for 2 weeks. Plasma bile acid levels were determined at the end of the second week. Data are expressed as mean values±SEM.\nPlasma bile acid levels of ZDF rats after administration of ascending doses of SC-435 and LUM002. Male ZDF rats (n=4) were administered vehicle, SC-435 (1, 10 or 30 mg/kg) or LUM002 (0.3, 1, 3, 10 or 30 mg/kg) by oral gavage twice a day for 2 weeks. Plasma bile acid levels were determined at the end of the second week. […] Data are expressed as mean values±SEM."}, "Male beagle dogs [1]": {"test_system": "Male beagle dogs", "test": "Time to onset of activity of a single oral dose on postprandial total serum bile acids in beagle dogs", "format": "in vivo, dog", "experimental": "Animal Study on the Duration of Action and Time to Onset of ASBTI Activity of a Single Oral Dose of LUM001 on Postprandial Total Serum Bile Acids in Beagle Dogs\nTest compound: LUM001—Form I\n(§1) Dosage preparation and administration: LUM001 was dissolved in water at concentrations that required the administration of 0.2 ml/kg of solution. Solutions were placed into gelatin capsules, Torpac Inc., size 13 Batch 594, East Hanover NJ, and administered orally.\n(§2) Dogs: Male beagle dogs were obtained from Covance Research Products, Cumberland VA or Marshall Farms USA, Inc., North Rose NY A total of 20 dogs, 1 to 5 years old, 6.8 to 15.6 kg body weight, were used in these experiments. The dogs were conditioned to a 12 hour light/dark cycle and maintained on a feeding restriction of 1 hour per day access to food (Richman Standard Certified Canine Diet #5007, PMI Nutrition, Inc., St Louis MO) from 7 to 8 AM. They were trained to eat a special meal promptly within 20 minutes when presented (1 can. 397 g, Evanger's 100% Beef for Dogs, Evanger's Dog and Cat Food Co., Inc., Wheeling IL, mixed with 50 g of sharp cheddar cheese.).\n(§3) Serum Total Bile Acid (SBA) Measurement: SBA was measured by an enzymatic assay. SBA values are expressed as μg of total bile acids/ml of serum.\nTo estimate the details of this plateau, 6 dogs were given a test meal and blood samples for SBA measurement were collected at −30, 0, 30, 60, 65, 70, 80, 90, 120, 180, 240, 360, 480, 720, 1410 and 1440 minutes from the time of feeding. Any remaining food was removed 20 min after it was first presented to the dogs. To establish a method for extending the elevated plateau of SBA, 6 dogs were given the meal at 0 hr and an additional ½ size meal again 4 hr after their first meal. Blood samples were taken at 0, 1, 2, 3, 4, 4.5, 6, 7 and 8 hr. The curves for SBA level vs time obtained in these experiments were used as references for determining blood sampling times in experiments with LUM001. […]"}, "Male beagle dogs [2]": {"test_system": "Male beagle dogs", "test": "Duration of action on dog serum bile acids, Method 2: one meal and extended interval between dosing and feeding", "format": "in vivo", "settings": "administered 2 hours prior to feeding", "experimental": "as §1, §2, §3\nMethod 2: One Meal and Extended Interval Between Dosing and Feeding: Alternatively, 6 dogs were dosed with water or LUM001, at 0.05 mg/kg, p.o. at 1.5 hours prior to being fed, or 0.05, or 0.2 mg/kg, at 2 hours prior to feeding. This moved the elevated SBA plateau out in time from the dose point. […]"}, "healthy adult subjects": {"test_system": "healthy adult subjects", "test": "Phase 1 ascending multiple oral dose study: serum and fecal bile acid analysis", "format": "in vivo, human", "settings": "healthy adults; ascending multiple oral doses qAM, 28 days", "experimental": "FIG. 3. Serum bile acid (SBA) analysis of healthy subjects after administration of ascending multiple oral doses of LUM001 a randomized, double-blind, placebo-controlled study. Shown in the graphs are data from the 0.5 (n=16), 1.0 (n=8), 2.5 (n=8), 5.0 (n=8) and 10 (n=8) mg dosing groups. On Day 1, blood was drawn for baseline SBA at approximately 30 minutes before and after breakfast and 30 minutes after lunch and dinner. Samples were obtained on day 14.\nFIG. 4. Fecal bile acid analysis of healthy subjects after administration of ascending multiple oral doses of LUM001 a randomized, double-blind, placebo-controlled study. […]\nSBA were analyzed as part of the routine clinical analysis of the serum samples collected at each time point.\nFecal Bile Acid Analysis: Fecal samples were collected for all panels except the dose-titration panel, 2.5 (2) and 5 mg (2), on Days 9 through 14 and 23 through 28 (data shown in FIG. 4). Twenty-four hour FBA excretions were quantified by Pharmacia for Days 9 through 14 and 23 through 28. […] The weight of each 24-hour fecal collection was recorded on the CRFs. […]\nAn aliquot for each 24-hour fecal sample collected on Days 23 through 28 was combined, homogenized, and analyzed for bile acid species concentrations by ANAPHARM. The fecal bile acid species evaluated include chenodeoxycholic acid, cholic acid, deoxycholic acid, and lithocholic acid."}, "[3]": {"test": "Systemic exposure (pharmacokinetics) of LUM001 in patients under 18, study NB-00-02-014", "format": "in vivo, human", "settings": "QD in the morning, measured on day eight", "experimental": "(§4) LUM001 has been administered to forty patients under the age of 18 years old. […] The drug was administered once-a-day (QD) in the morning for fourteen days. […] These doses are similar to those using to treat patients with cholestatic diseases."}, "[4]": {"test_system": "children and adolescents under the age of eighteen", "test": "Human study of fasting and post-prandial peak serum bile acids in children and adolescents", "format": "in vivo", "experimental": "FIG. 5. Fasting serum bile acid levels and morning post-prandial peak in children under the age of 12. LUM001 was administered once-a-day (QD) in the morning for fourteen days.\nHuman Study to Test Efficacy of ASBTI in Lowering Serum Bile Acids\nas §4\nThe efficacy of LUM001 was determined by measuring total serum bile acids after eight days of dosing in children and adolescents under the age of eighteen. Thirty minutes before the next drug administration, at approximately 8 am in the morning, serum bile acid levels were measured. The child had refrained from food for 12 hours prior to this sample thus providing a fasted level of serum bile acid. After breakfast, serum bile acids were measured for up to the next 4 hours (8 am to noon) and the peak serum bile acid concentration noted."}, "Male beagle dogs [5]": {"test_system": "Male beagle dogs", "settings": "previous experiments (2); cited from earlier work"}, "[6]": {"test_system": "Male Zucker diabetic fatty rats (ZDF/GmiCrl-fa/fa)", "test": "ZDF rat study of 264W94: fecal bile acid excretion, fecal NEFA and plasma bile acids", "format": "in vivo", "settings": "2 weeks", "experimental": "Animal preparation. Male Zucker diabetic fatty rats (ZDF/GmiCrl-fa/fa) were purchased from Charles River (Raleigh, NC) and housed under controlled conditions (12:12 light-dark cycle, 24° C. and 50% relative humidity) with free access to rodent food (Purina 5008, Harlan Teklad, Indianapolis, IN). All rats arrived at seven weeks of age (+3 days). After a one-week acclimation period, rats were anesthetized with isoflurane (Abbott Laboratories, IL) and tail-vein blood samples were collected at 9 am without fasting. Blood glucose levels were measured using a glucometer (Bayer, Leverkusen, Germany). In order to ensure balanced treatment groups, ZDF rats were assigned to six treatment groups based upon baseline glucose: vehicle (0.5% HPMC, 0.1% Tween80) and five doses of 264W94 (0.001, 0.01, 0.1, 1, 10 mg/kg). All treatments were given via oral gavage twice a day and animals were followed for two weeks with blood samples collected from tail vein at the end of each week at 9 am without fasting. Fecal samples were collected for 24 hours during the second week of treatment.\nMeasurement of clinical chemistry parameters. Non-esterified fatty acids (NEFA), bile acids, and bile acids in fecal extraction were measured using the Olympus AU640 clinical chemistry analyzer (Beckman Coulter, Irving, TX)."}, "[7]": {"settings": "FIG. 5 legend: children under the age of 12, QD for fourteen days"}, "[8]": {"settings": "LUM001 treated patients under eighteen, after eight days of dosing"}, "[9]": {"settings": "patients under eighteen, after eight days of dosing"}}, "data": [{"smiles": "CCCCC1(CCCC)CS(=O)(=O)c2ccc(N(C)C)cc2[C@@H](c2ccc(OCCCC[N+]34CCN(CC3)CC4)cc2)[C@H]1O.CS(=O)(=O)[O-]", "note": "[SC-435, 1-[4-[4-[(4R,5R)-3,3-dibutyl-7-(dimethylamino)-2,3,4,5-tetrahydro-4-hydroxy-1,1-dioxido-1-benzothiepin-5-yl]phenoxy]butyl]4-aza-1-azoniabicyclo[2.2.2]octane methanesulfonate salt, reference compound]", "values": [{"measurement": "Plasma bile acid levels", "setting": "Male ZDF rats", "value": "decreased"}]}, {"smiles": "CCCCC1(CCCC)CS(=O)(=O)c2ccc(N(C)C)cc2[C@@H](c2ccc(OCc3ccc(C[N+]45CCN(CC4)CC5)cc3)cc2)[C@H]1O", "note": "[LUM001]", "values": [{"measurement": "Effect of increasing the dose on onset time to significant SBA lowering", "setting": "Male beagle dogs [1]; 1 mg/kg versus 0.2 mg/kg", "value": "did not shorten the onset time"}, {"measurement": "ED50", "setting": "Male beagle dogs [1]; Canis lupus familiaris, oral, read-out: ED50 dose in the dog SBA model", "value": 0.2, "unit": "mg/kg"}, {"measurement": "Threshold dose for significant lowering of SBA levels", "setting": "Male beagle dogs [1]; oral, 1 hour after feeding", "value": 0.05, "unit": "mg/kg"}, {"measurement": "Dose required to produce a significant effect on SBA", "setting": "Male beagle dogs [2]", "value": 0.2, "unit": "mg/kg"}, {"measurement": "Fecal bile acids", "setting": "healthy adult subjects", "value": "significant increase"}, {"measurement": "Serum bile acids", "setting": "healthy adult subjects", "value": "significant reduction"}, {"measurement": "Systemic absorption (levels of systemic exposure)", "setting": "[3]", "value": "minimally absorbed"}, {"measurement": "Decrease in average fasting serum bile acid level versus placebo patients", "setting": "[4]; [7]", "value": 24, "unit": "%"}, {"measurement": "Decrease in average post-prandial peak serum bile acid level versus placebo patients", "setting": "[4]; [7]", "value": 23, "unit": "%"}, {"measurement": "Average fasting serum bile acid level", "setting": "[4]; [8]", "value": 6.5, "unit": "µmol/L"}, {"measurement": "Average post-prandial peak serum bile acid level", "setting": "[4]; [8]", "value": 9.2, "unit": "µmol/L"}, {"measurement": "Decrease in average fasting serum bile acid level versus placebo patients", "setting": "[4]; [9]", "value": 24, "unit": "%"}, {"measurement": "Decrease in average post-prandial peak serum bile acid level versus placebo patients", "setting": "[4]; [9]", "value": 23, "unit": "%"}, {"measurement": "Time that the compound remains active", "setting": "Male beagle dogs [5]", "value": "more than 4.5 hours"}]}, {"smiles": "CCCC[C@]1(CC)CS(=O)(=O)c2cc(OC)c(OC)cc2[C@@H](c2ccccc2)N1", "note": "[Compound 264W94]", "values": [{"measurement": "Fecal bile acid concentrations elevated, compared to vehicle treated rats", "setting": "[6]; 0.001-10 mg/kg oral gavage twice a day, 24 h feces in second week, maximum elevation", "value": "up to 6.5 fold"}, {"measurement": "Bile acids in the feces", "setting": "[6]; oral administration twice a day", "value": "dose-dependently increased"}]}, {"smiles": "CCCC[C@]1(CC)CS(=O)(=O)c2ccc(N(C)C)cc2[C@@H](c2cccc(NC(=O)N[C@@H]3O[C@H](COS(=O)(=O)[O-])[C@@H](O)[C@H](OCc4ccccc4)[C@H]3O)c2)[C@H]1O.[K+]", "note": "[LUM002]", "values": [{"measurement": "Plasma bile acid levels", "setting": "Male ZDF rats", "value": "decreased"}]}]}
